Assay results: US9415031B2, “D-serine transporter inhibitors as pharmaceutical compositions for the treatment of visual system disorders” (Allergan, Inc., priority 2011, dated 2016)
“Also recorded” adds a separate entry of the source.

Assays:
[1] = test system: rat hippocampal astrocytes; experiment: [3H]D-serine transport into primary cultures of rat hippocampal astrocytes; format: cell-based; details: two-component inhibition curves, FIG. 4
Method: (§1) Cell-based assays: the transport of [^3H]L- or D-serine was measured in primary cultures of rat hippocampal astrocytes or in human embryonic kidney (HEK) cells expressing ASCT transporter sub-types. For the astrocyte assays, cells were plated on either 24- or 96-well plates at a density of 50,000 cells per well. For the HEK assays, cells were plated on coated 96-well plates at a density of 80,000 cells/well. Assays were conducted in duplicate at room temperature in assay buffer consisting of: NaCl: 150 mM, KCl: 2 mM; MgCl2: 1 mM; CaCl2: 1 mM; HEPES: Tris buffer: 10 mM, pH7.4. To assess the sodium-dependence of transport, NaCl was replaced in the assay buffer by equimolar choline chloride. Following aspiration of growth medium and 2 washes with assay buffer, cells were incubated with [^3H]L- or D-serine at a final concentration of 1 μM for 5 min (astrocytes) or 1 min (HEK cells), after which the incubation medium was aspirated and the cells washed twice with ice-cold assay buffer. Cells containing radiolabel were solubilized in 100 μl of 1% Triton-X100 and an aliquot counted in a beta counter. IC50 values were determined over a range of at least 6 concentrations and derived from curve-fitting algorithms available in Graph Pad Prism 4.

ASCT1 [2] = molecular target: T1, ASCT1 (Homo sapiens, UniProt P43007); details: one literature report; cited from earlier work
T1 sequence (P43007 1-532): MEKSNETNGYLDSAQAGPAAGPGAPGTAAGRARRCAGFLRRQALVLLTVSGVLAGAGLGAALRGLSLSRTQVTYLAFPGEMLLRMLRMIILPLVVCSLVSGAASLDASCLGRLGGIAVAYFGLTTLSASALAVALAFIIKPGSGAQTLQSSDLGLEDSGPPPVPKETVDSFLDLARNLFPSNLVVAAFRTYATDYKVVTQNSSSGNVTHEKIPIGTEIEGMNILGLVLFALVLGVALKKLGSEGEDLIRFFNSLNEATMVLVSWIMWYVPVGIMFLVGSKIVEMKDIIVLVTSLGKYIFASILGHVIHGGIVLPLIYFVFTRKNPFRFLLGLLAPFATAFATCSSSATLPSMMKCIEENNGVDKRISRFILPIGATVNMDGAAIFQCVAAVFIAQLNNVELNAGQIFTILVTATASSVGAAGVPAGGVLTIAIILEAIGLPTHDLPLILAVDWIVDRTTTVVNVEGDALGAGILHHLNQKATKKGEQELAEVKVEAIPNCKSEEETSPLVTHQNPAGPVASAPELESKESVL

ASCT1 [3] = molecular target: T1, ASCT1; experiment: transport into HEK cells expressing ASCT1; format: cell-based; set-up: expressed in transfected cells; host or cells: HEK (human embryonic kidney) cells; details: inhibition of [3H]L-serine transport, HEK cells expressing ASCT1 vs ASCT2
Method: as §1

[4] = test system: NMDA receptor-mediated excitatory postsynaptic currents (EPSCNMDA); experiment: electrophysiological recording of NMDA receptor-mediated EPSCs from rat hippocampal slices; format: cell-based
Method: […] thick hippocampal slices were prepared from […] rats using Leica VT1000S-microtome. Slices were perfused with ACSF containing: 121 mM NaCl, 2.5 mM KCl, 2.0 mM Mg2SO4, 2.0 CaCl2, 1 mM NaH2PO4, 26.2 NaHCO3, and 11 mM glucose, which was equilibrated with 5% CO2/95% O2. Experiments were performed in a recording chamber on the stage of an Olympus BX-61wi microscope with infrared DIC optics for visualizing whole-cell patch-clamp recordings. EPSPs were recorded from CA1 pyramidal neurons by stimulating the Schaffer collateral-commissural pathway using a bipolar tungsten electrode. The recording pipettes were filled with regular ICM containing: 120 mM Cs-gluconate, 5 mM NaCl, 10 mM KCl, 0.1 mM CaCl2, 1 mM EGTA, 2 mM MgCl2, 10 mM HEPES, 2 mM Na-ATP, 2 mM Na2-phosphocreatine, and 0.25 mM Na-GTP, pH 7.3 (290 mOsm).
To measure NMDA-mediated EPSCs, extracellular Mg2SO4 was lowered to 0.2 mM and 2 μM NBQX and 100 μM picrotoxin were added in the ACSF. 1 μM 7-CKY (7-chlorokynurenic acid) was added to improve the sensitivity of […] to D-serine.

[5] = test system: long-term potentiation (LTP) in the primary visual cortex; experiment: long-term potentiation (LTP) in primary visual cortex slices; format: cell-based; details: rat visual cortex slice
Method: Long Term Potentiation (LTP) in primary visual cortex has been used as a cellular model for visual cortex plasticity and has functional consequences on visual evoked responses. NMDA receptors play a critical role in visual cortex LTP induction.
Following decapitation of the rat, the brain was rapidly removed and immersed in ice-cold artificial cerebrospinal fluid (ACSF) containing 124 mM NaCl, 3 mM KCl, 1.25 mM KH2PO4, 3.4 mM CaCl2, 2.5 mM MgSO4, 26 mM NaHCO3, and 10 mM D-glucose. A block of visual cortex was created by removing the frontal ⅔ portion of the brain and the cerebellum. Coronal visual cortex slices of 375 μm were prepared from adult Sprague Dawley (SD) rats using a vibratome (VT 1000 S; Leica). The slices were maintained in an interface recording chamber perfused with preheated ACSF. Slices were continuously perfused with this solution at a rate of 1.00-1.50 ml/min while the surface of the slices was exposed to warm, humidified 95% O2/5% CO2 and maintained at 31±1° C. Visual cortex slices were allowed to recover for 1 hr before recording began. […] This was repeated 2 additional times with a 1 minute intertrain interval, and the level of LTP was recorded for at least 30 min. Changes in amplitude of the synaptic response were used to measure the extent of LTP because it was determined to be the more consistent parameter than the slope of the response. […]

normal rats = experiment: sweep VEP visual acuity in normal rats; format: in vivo, rat; details: 0.03-1.6 cpd, vs saline
Excerpt: Sweep visually evoked potential (sweep VEP, sVEP), which was first introduced by Regan in 1973, has become an important technique to measure visual function. It is an objective method that can be used to assess visual acuity (VA) and contrast sensitivity (CS) in infants, young children and people with special needs. It was adapted to measure VA and CS in animals.
(§2) The recording electrodes were permanently implanted into the right visual cortex of Long Evans rats at lambda and 4.5 mm lateral to the midline, to a depth of 800 microns (layer III/iV). A reference electrode was placed epidurally on the midline 1.2 mm anterior to bregma. All recordings were conducted in awake rats starting at least two weeks after recovery from surgery. During recording the rats were alert and restrained in a home-made restrainer. They were habituated 2-3 times pre-surgery and at least three more times during seven days post-surgery. PowerDiva software from Anthony Norcia (Smith Kettlewell Institute of Visual Sciences) was used for data acquisition and analysis. Similar recording was performed in rabbits (FIG. 11) except the screw electrodes were place on top of the skull.
(§3) Stimuli were presented on a CRT computer monitor and consist of full-field sine-wave gratings at 80% contrast, reversing at 6.25 Hz. VEPs were elicited by horizontally oriented gratings. The display was positioned 24 cm in front of the rat and centered at the vertical meridian. Mean luminance was held constant at 20 cd. For sVEP in normal rats (slides 76-79), one stimulus presentation (one trial) consists of a spatial frequency sweep decreasing from 1.6 to 0.03 cycles/degree in 15 linear steps. A total of 20 trials were collected. Visual acuity (VA) thresholds were estimated using PowerDiva software. For fixed frequency stimulus in optic nerve crushed (ONC) rats (slides 80-83), the spatial frequency was fixed at 0.2 or 0.5 cycles/degree. Each trial lasts for 15 s. A total of 5 trials were collected and the signal powers were calculated.

ONC rat = experiment: fixed-frequency VEP in optic nerve crush (ONC) rats; format: in vivo; details: 30 mg/kg, spatial frequency fixed at 0.2 cpd, vs saline
Method: as §2
as §3, with “Visual acuity (VA) thresholds were estimated using PowerDiva software. For fixed frequency stimulus in optic nerve crushed (ONC) rats (slides 80-83), the spatial frequency was fixed at 0.2 or 0.5 cycles/degree. Each trial lasts for 15 s.” left out

normal rabbits = experiment: sweep VEP in normal rabbits; format: in vivo, rabbit; details: 30 mg/kg, 0.03-1.6 cpd, vs saline
Method: as §2
as §3, with “Visual acuity (VA) thresholds were estimated using PowerDiva software. For fixed frequency stimulus in optic nerve crushed (ONC) rats (slides 80-83), the spatial frequency was fixed at 0.2 or 0.5 cycles/degree. Each trial lasts for 15 s.” left out

[6] = test system: rats after blue-light treatment; experiment: contrast sensitivity (sweep VEP) in blue-light treated rats; format: in vivo, rat
Method: as §2
One stimulus presentation (one trial) consists of a contrast sweep increasing from 2.5 to 70% in 15 log steps. A total of 20 to 30 trials were collected. Contrast thresholds (CT) were estimated using PowerDiva software. Contrast sensitivity (CS) is calculated as 1/CT.
Blue-light treatment damages photoreceptors in the retina, and has been proposed as a model of age related macular degeneration (ARMD; Wielgus et al., 2010).

human ASCT2 = molecular target: T2, human ASCT2 (Homo sapiens, UniProt Q15758); experiment: transport into HEK cells expressing ASCT2; format: cell-based; details: inhibition of [3H]L-serine transport, HEK cells expressing ASCT1 vs ASCT2
T2 construct: expressed in transfected cells; host or cells: HEK (human embryonic kidney) cells
T2 sequence (Q15758 1-541): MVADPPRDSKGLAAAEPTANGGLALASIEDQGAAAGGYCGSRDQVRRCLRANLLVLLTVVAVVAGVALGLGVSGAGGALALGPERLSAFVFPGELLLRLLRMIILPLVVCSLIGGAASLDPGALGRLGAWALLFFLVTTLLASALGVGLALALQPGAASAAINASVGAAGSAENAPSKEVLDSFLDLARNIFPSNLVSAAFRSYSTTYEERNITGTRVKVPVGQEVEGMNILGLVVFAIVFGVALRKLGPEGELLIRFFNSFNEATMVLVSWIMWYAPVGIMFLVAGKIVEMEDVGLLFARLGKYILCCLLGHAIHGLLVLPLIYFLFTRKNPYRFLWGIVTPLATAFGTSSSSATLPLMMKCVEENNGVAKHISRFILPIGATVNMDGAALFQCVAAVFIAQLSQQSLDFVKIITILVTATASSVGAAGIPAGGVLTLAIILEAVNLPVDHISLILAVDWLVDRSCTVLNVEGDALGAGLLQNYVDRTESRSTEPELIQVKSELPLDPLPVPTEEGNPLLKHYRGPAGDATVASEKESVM
Method: as §1

ASCT2 = details: literature range; cited from earlier work

SMILES: O=C(O)[C@@H]1C[C@@H](O)CN1 [L-t-4OHPro, L-trans-4-hydroxyproline]
- proportion of D-serine transport represented by the component for which the compound showed higher affinity [1]: approximately 60%
- reported affinity for ASCT1 (ASCT1 [2]): high affinity
- selectivity towards ASCT1 (ASCT1 [3]): selectivity towards ASCT1
- selectivity towards ASCT1 (ASCT1 [3]; listed as L-trans-4OHPro): selective for ASCT1

SMILES: N[C@H](C(=O)O)c1ccc(O)cc1 [L-4OHPG, L-4-hydroxyphenylglycine]
- percentage increase in the amplitude of EPSCNMDA ([4]; 1000 μM, in presence of 1 μM 7-CKY, representative experiment): 22%
- duration of the potentiation effect on EPSCNMDA ([4]; 1000 μM, then control buffer): lasted for one hour
- effect on NMDA receptor-mediated EPSCs ([4]; CA1 region of the hippocampus): dose-dependent effects; also recorded: potentiated
- effect on LTP evoked by theta burst stimulation [5]: dose-dependently facilitates; also recorded: enhanced LTP in a concentration-dependent manner
- effect on LTP with D-amino acid oxidase (D-AAO) in the perfusion medium ([5]; D-AAO): dependent on extracellular D-serine; also recorded: completely prevented
- visual function (visual acuity) assessed by sweep VEP (normal rats; 30 mg/kg, 30 min after injection, 30 mg/kg): enhance visual function
- visually-evoked signals (power of signals) from the visual cortex (ONC rat): visual enhancement effect; also recorded: enhances visually-evoked signals
- visual function assessed by sweep VEP (normal rabbits): enhances visual function; also recorded: enhanced sweep VEP
- contrast sensitivity ([6]; rats with damaged retinas following blue-light treatment, FIG. 12 as described in text): significant improvement in contrast sensitivity

SMILES: N[C@H](C(=O)O)c1ccc(F)cc1 [L-4FPG, L-4-fluorophenylglycine]
- visual function (visual acuity) assessed by sweep VEP (normal rats; 10 mg/kg, 40 min after injection, 10 mg/kg): enhance visual function
- visual function (visual acuity) assessed by sweep VEP (normal rats; 10 mg/kg, 40 min after injection, listed as L-FPG, 10 mg/kg): enhances visual function
- contrast sensitivity ([6]; rats fifty-three weeks after blue-light treatment, 10 mg/kg, 0.575 cpd, vs saline): improved the contrast sensitivity

SMILES: NC(=O)CC[C@H](N)C(=O)O [L-glutamine]
- proportion of D-serine transport represented by the component for which the compound showed higher affinity [1]: approximately 40%
- selectivity towards ASCT2 (human ASCT2): selectivity towards ASCT2; also recorded: selective for ASCT2
- reported affinity for ASCT2 (ASCT2): 23 to 70 µM
